The target of one assay is Estrogen receptor (Homo sapiens, UniProt P03372).
For another assay, the target named is Albumin (Bos taurus, UniProt P02769). Briefly: Counterscreen for inhibitors of T-cell receptor (TCR)-CD3 interaction: Fluorescence-based biochemical high throughput dose response assay to identify inhibitors of T-cell receptor (TCR)-CD3 interaction using a TAMRA-labeled BSA probe. Format: functional.
Assay [1] concerns the target T1, Probable nicotinate-nucleotide adenylyltransferase (Staphylococcus aureus (strain N315), UniProt P65502). Format: functional, Staphylococcus aureus subsp. aureus N315. The following applies: read-out: IC50_Mean.
The target of assay [2] is T1, Probable nicotinate-nucleotide adenylyltransferase. Format: functional, Staphylococcus aureus subsp. aureus N315.
The target in the next assay is Bcl-2-like protein 1 (Homo sapiens, UniProt Q07817). In words: blockers of BCLXL peptide binding – biochemical, fluorescence polarization, 1536-well, selectivity assay for MCL1 inhibitor project, dose response (AID 2218). (In general: Fluorescence polarisation rises when a labelled molecule tumbles more slowly, as on binding a larger partner.)
For assay [3], the target named is T2, Induced myeloid leukemia cell differentiation protein Mcl-1 (Homo sapiens, UniProt Q07820). It counts as functional.
In assay [4] the target is DNA (cytosine-5)-methyltransferase 1 (Homo sapiens, UniProt P26358). Briefly: inhibition of DNA methylation by DNMT1 – biochemical, fluorescent molecular beacon, confirmation (AID 602386). It counts as functional.
Assay [5] addresses T2, Induced myeloid leukemia cell differentiation protein Mcl-1. Briefly: blockers of MCL1 binding to BIM peptide – biochemical, fluorescence polarization, BIM-BH3 peptide, 1536-well, dose response (AID 2217).
In the next assay the target is T3, Aminopeptidase N (Plasmodium falciparum FcB1/Columbia, UniProt O96935).
T3 sequence (O96935 whole entry): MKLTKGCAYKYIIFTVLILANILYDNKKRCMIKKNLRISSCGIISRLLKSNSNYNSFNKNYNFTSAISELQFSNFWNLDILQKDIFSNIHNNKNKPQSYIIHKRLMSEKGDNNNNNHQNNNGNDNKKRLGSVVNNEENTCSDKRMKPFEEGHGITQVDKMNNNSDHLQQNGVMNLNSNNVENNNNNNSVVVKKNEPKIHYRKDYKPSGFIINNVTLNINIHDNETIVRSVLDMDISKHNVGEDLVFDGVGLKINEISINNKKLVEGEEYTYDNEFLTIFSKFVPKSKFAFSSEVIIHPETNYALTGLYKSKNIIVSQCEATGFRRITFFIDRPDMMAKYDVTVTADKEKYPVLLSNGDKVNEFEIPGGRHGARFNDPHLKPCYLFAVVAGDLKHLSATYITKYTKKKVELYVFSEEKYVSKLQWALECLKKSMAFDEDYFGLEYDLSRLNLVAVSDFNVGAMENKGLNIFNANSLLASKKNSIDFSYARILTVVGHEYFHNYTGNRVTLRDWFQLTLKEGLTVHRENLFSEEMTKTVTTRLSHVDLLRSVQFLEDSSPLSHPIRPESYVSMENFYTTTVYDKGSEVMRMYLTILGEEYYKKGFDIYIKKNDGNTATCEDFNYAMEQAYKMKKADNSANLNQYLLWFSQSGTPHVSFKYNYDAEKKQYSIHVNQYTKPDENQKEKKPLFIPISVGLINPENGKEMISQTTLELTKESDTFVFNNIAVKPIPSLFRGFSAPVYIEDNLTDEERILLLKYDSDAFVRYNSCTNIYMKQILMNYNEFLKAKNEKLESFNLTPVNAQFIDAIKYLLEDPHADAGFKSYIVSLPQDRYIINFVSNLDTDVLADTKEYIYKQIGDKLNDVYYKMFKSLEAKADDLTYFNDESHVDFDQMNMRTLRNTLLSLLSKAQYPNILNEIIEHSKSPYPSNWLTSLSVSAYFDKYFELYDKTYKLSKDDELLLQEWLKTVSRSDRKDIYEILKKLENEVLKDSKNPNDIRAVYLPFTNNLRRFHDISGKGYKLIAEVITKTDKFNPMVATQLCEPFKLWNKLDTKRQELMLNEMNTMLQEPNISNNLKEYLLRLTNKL
In words: malaria alanyl aminopeptidase activity blockers – biochemical, fluorogenic H-Leu-NHMec substrate, 1536-well (AID 1445). Further details: species or system Plasmodium falciparum 3D7, 3D7.

The target of a further assay is Aspartyl aminopeptidase (Plasmodium falciparum 3D7, UniProt Q8I2J3). In words: Counterscreen for inhibitors of M1 and M17 aminopeptidases: QFRET-based biochemical high throughput dose response assay for inhibitors of the Plasmodium falciparum M18 Aspartyl Aminopeptidase (PFM18AAP). [Related PubChem assays: 1619 (Screening assay (M17LAP inhibitors).), 1445 (Screening assay (M1AAP inhibitors).)]. On the technique in general: Counterscreens check selectivity or assay interference.

A further assay deals with Procathepsin L (Homo sapiens, UniProt P07711). In words: CTSL1 protease inhibition – biochemical, QFRET, 1536-well, counter-screen for M1/M17 aminopeptidase inhibitor project, dose response (AID 2214).
Assay [6] addresses T4, Estrogen receptor beta (Homo sapiens, UniProt Q92731). Briefly: blockers of SRC-3 recruitment to ERβ – biochemical, ELISA, streptavidin-HRP readout, orthogonal assay, confirmation (AID 1060). (In general: An ELISA detects its analyte on a solid surface through an enzyme-linked reagent.)
The target of assay [7] is Low molecular weight phosphotyrosine protein phosphatase (Homo sapiens, UniProt P24666). Format: functional. The settings on record: read-out: IC50_Mean.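 Also: Dose-response confirmation assay measuring inhibition of LMPTP enzyme activity by fluorescence intensity read-out.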
The target of assay [8] is T4, Estrogen receptor beta.
The next assay addresses NADPH oxidase 1 (Homo sapiens, UniProt Q9Y5S8). In words: Luminescence-based cell-based dose response assay to identify inhibitors of NADPH oxidase 1 (NOX1). Format: functional.
The target of assay [9] is T5, Rac GTPase-activating protein 1 (Homo sapiens, UniProt Q9H0H5).
T5 sequence (Q9H0H5 whole entry): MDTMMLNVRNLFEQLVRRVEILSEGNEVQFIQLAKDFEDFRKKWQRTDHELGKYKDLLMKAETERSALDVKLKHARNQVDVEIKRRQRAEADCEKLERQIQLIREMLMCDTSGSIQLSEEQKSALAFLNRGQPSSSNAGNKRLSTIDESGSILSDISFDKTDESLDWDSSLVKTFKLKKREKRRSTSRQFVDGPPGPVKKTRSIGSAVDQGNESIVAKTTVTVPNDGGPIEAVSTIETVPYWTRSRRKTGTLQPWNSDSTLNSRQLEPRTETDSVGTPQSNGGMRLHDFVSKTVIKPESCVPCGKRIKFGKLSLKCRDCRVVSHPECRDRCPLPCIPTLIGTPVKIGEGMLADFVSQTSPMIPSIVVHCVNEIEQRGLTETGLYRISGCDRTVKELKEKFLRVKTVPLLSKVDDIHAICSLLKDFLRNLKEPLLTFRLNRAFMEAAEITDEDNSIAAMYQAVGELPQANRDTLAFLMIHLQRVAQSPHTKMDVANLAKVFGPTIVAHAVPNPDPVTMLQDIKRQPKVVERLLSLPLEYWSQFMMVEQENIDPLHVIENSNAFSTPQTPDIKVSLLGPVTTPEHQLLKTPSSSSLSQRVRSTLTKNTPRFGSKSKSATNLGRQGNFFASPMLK
In words: blockers of MgcRacGAP-driven Rac1 GTP hydrolysis – biochemical, ADP Hunter fluorescence, primary and confirmatory, confirmation (AID 624330). Format: functional.

Assay [10] in a line: A High Throughput Confirmatory Assay used to Identify Novel Compounds that Inhibit Mycobacterium Tuberculosis in the absence of Glycerol. Format: functional.
Assay [11] can be described thus: M. tuberculosis growth inhibition, HTS (AID 449762). Format: functional.
Assay [12] is described as follows: microbe, parasite or virus in culture. It counts as functional. The settings on record: Mycobacterium tuberculosis.
The test system of a further assay is Vero. In words: inhibition of WNV-induced cytopathic effect – cell-based, CPE readout (AID 1621). It counts as functional. The following applies: Chlorocebus sabaeus.

The source made the active and inactive calls.

T2 sequence (Q07820 whole entry): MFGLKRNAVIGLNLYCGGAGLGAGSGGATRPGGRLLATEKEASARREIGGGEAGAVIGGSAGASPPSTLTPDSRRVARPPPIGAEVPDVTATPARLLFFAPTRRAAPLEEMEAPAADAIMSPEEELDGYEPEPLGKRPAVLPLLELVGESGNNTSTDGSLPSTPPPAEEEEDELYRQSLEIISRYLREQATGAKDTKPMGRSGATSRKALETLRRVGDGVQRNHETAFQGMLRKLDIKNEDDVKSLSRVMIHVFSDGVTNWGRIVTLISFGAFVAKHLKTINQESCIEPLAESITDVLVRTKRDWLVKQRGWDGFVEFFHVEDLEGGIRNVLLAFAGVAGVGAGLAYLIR
T4 sequence (Q92731 whole entry): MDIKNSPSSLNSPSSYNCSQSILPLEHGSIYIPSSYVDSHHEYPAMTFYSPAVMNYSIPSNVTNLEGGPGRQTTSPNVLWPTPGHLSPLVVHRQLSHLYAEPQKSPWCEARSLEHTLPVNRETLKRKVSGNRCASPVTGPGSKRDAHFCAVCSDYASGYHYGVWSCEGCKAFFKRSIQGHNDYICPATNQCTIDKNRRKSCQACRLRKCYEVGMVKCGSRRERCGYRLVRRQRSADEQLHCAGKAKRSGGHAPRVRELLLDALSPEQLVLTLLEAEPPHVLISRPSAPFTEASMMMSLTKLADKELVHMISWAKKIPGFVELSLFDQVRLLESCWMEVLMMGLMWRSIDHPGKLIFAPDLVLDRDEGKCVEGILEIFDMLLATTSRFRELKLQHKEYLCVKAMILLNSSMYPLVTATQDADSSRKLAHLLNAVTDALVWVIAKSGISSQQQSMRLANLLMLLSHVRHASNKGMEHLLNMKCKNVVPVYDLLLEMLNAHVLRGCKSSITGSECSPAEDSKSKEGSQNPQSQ
T1 sequence (P65502 whole entry): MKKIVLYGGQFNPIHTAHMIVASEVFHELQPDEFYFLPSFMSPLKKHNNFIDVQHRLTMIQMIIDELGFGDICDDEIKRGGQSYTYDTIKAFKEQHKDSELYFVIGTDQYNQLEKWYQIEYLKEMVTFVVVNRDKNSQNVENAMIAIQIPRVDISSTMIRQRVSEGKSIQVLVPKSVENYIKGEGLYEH
Chain of Low molecular weight phosphotyrosine protein phosphatase (P24666 whole entry): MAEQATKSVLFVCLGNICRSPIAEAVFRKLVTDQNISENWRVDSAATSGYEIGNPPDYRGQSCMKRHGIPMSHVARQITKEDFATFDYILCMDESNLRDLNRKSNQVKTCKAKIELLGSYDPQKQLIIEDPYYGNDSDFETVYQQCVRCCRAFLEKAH
Chain of DNA (cytosine-5)-methyltransferase 1 (P26358 whole entry): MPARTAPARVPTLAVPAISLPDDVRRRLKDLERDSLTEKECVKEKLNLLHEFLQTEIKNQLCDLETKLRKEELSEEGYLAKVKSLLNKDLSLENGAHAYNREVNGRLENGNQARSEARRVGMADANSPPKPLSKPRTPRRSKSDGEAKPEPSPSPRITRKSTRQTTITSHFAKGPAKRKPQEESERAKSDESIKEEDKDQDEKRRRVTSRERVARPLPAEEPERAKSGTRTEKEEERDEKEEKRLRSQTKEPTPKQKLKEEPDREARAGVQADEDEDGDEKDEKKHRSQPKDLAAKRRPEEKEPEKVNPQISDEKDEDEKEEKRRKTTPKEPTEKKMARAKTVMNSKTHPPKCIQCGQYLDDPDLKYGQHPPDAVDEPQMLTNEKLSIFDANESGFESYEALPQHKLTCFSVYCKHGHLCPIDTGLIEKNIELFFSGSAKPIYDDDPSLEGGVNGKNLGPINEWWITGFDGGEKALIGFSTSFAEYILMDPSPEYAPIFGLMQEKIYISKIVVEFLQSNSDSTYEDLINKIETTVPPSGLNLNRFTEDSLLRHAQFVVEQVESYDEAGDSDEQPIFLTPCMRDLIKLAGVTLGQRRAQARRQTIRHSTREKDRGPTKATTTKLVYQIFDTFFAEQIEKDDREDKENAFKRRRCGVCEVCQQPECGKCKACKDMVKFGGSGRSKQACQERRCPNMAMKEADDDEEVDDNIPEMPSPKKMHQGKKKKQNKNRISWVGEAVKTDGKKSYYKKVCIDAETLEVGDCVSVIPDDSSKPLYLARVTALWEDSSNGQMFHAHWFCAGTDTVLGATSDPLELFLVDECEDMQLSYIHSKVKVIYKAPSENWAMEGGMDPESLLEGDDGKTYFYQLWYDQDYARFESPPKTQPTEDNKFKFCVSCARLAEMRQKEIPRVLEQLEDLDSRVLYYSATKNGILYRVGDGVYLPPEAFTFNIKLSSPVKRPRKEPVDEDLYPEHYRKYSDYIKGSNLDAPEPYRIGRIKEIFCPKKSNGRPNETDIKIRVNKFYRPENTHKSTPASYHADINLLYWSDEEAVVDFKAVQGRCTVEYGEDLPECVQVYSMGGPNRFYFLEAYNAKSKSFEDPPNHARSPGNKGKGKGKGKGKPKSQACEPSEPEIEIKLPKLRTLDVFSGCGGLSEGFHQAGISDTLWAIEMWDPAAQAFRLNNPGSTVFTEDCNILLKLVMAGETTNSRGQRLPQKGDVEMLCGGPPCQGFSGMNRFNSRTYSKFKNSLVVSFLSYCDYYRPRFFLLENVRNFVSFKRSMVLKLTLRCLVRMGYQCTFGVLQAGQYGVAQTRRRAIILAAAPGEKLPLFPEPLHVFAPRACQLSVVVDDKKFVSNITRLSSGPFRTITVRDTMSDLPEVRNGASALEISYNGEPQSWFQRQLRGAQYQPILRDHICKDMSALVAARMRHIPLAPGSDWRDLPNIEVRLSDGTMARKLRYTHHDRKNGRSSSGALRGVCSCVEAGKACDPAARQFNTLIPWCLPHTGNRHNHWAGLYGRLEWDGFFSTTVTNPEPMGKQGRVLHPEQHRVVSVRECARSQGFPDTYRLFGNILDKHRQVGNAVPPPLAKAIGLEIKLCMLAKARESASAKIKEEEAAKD
Chain of Bcl-2-like protein 1 (Q07817 whole entry): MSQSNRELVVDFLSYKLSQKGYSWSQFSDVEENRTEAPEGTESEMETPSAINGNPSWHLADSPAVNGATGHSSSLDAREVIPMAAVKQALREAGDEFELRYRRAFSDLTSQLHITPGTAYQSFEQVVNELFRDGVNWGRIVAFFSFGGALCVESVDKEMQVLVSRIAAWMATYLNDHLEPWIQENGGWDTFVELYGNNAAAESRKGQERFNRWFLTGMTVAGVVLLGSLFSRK
Chain of Procathepsin L (P07711 whole entry): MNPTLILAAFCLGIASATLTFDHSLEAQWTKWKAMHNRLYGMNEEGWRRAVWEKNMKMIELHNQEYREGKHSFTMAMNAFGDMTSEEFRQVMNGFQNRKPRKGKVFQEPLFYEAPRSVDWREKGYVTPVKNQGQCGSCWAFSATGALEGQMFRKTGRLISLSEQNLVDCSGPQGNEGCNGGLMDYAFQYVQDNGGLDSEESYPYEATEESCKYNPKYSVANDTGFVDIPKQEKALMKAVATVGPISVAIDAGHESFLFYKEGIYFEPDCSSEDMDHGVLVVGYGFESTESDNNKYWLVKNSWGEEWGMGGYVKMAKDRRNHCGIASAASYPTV
Chain of Aspartyl aminopeptidase (Q8I2J3 whole entry): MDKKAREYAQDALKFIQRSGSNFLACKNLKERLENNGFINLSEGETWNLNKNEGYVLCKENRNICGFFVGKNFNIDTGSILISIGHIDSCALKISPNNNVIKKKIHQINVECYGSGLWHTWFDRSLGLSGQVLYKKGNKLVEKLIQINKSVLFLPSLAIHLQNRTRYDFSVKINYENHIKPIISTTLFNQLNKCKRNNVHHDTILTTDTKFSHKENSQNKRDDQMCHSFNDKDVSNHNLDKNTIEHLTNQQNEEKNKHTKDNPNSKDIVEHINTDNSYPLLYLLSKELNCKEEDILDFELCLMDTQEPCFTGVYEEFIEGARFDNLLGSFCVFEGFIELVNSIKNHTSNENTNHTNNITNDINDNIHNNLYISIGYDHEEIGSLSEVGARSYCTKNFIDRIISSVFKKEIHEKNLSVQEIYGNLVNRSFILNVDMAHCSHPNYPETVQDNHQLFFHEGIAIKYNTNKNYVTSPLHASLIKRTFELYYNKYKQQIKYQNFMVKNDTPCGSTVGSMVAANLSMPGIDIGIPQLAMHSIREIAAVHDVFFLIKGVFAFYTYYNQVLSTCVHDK
Chain of Albumin (P02769 whole entry): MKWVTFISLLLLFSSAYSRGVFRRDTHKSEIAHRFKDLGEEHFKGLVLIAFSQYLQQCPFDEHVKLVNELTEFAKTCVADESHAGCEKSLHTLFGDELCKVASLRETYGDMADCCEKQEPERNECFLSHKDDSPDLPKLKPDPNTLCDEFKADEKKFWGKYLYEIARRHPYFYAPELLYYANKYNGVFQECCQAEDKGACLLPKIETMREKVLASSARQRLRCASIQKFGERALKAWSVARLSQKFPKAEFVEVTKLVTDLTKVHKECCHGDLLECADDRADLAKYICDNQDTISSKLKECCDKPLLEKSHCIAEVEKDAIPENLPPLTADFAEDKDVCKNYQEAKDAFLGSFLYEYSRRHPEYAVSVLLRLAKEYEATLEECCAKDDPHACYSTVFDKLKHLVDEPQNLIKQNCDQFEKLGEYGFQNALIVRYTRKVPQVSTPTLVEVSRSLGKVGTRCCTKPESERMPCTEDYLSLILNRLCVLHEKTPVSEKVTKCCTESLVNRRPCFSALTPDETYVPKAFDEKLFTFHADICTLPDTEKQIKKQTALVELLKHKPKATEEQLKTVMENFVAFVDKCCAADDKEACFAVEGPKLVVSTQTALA

With `CN(CC(=O)NC(=O)NCc1ccco1)Cc1nc(O)c2ccccc2n1`, the IC50 on Estrogen receptor was 13.7 µM (active).

Consider `O=C(Nc1cccc(S(=O)(=O)NC2=NCCC2)c1)c1cc(-c2ccco2)nc2ccccc12`, for which the IC50 on Albumin was > 94.1 µM (inactive); in assay [1], 22.7 µM (active); in assay [2], 9.01 µM (active); on Bcl-2-like protein 1, > 109 µM (not active); in [3] it was 1.09 µM (active); in assay [4], 3.71 µM (active). The IC50 in [5] is 4.26 µM (active).

For the compound `O=C(NCc1ccc2c(c1)OCO2)C1CCN(S(=O)(=O)c2ccc(Br)s2)CC1`, the IC50 on Aminopeptidase N was 2.11 µM (active); at Aspartyl aminopeptidase, > 73.5 µM (not active); against Procathepsin L, > 59.6 µM (not active).

Turning to `N=c1c(C(=O)NCc2ccc3c(c2)OCO3)cc2c(=O)n3ccccc3nc2n1Cc1cccnc1`, the IC50 at Estrogen receptor beta [6] was > 50 µM (not active); in [7], 17.1 µM (active); in assay [3], 4.3 µM (active); at Estrogen receptor beta [8], 5.48 µM (active).

`CCN(CC)c1ccc(NC(=O)Nc2ccccc2)cc1`: the IC50 at NADPH oxidase 1 was 0.176 µM (active); in assay [9], 45 µM (active).

In the case of `COc1ccc(C2c3[nH]c4ccccc4c3CCN2C(=O)c2cc3ncccn3n2)c(F)c1` (stereo unspecified), the IC50 was > 100 µM (active) in assay [10], > 100 µM (active) in [11] and 34.6 µM (active) in the assay on Vero. Moreover, the CC50 in assay [12] is > 40 µM (active).

The record behind these values is ChEMBL document CHEMBL1201862, “PubChem BioAssay data set” (2004).
